In PMC3964211, “Pharmacokinetic modeling optimizes inhibition of the ‘undruggable’ EWS-FLI1 transcription factor in Ewing Sarcoma” (Oncotarget, 2013):

Experiments:
[1] = Pharmacokinetics in SD rats, single IV injection; format: in vivo, Sprague-Dawly (SD) rats; conditions: for AUClast / AUC∞ / Clearance / Observed Cmax / Terminal Elimination Half-Life: analyte (S)-YK-4-279 in plasma
Description: To optimize dosing in animals, we determined the pharmacokinetics of YK-4-279 and its single enantiomers in Sprague-Dawly (SD) rats. Three rats of each gender were assigned to nine dose groups. Animals in Groups 1 through 3 received a single intravenous (IV) injection of racemic mixture, (S)-YK-4-279, or (R)-YK-4-279 at a dose of 25 mg/kg. Animals in Groups 4 through 9 received a single oral gavage administration of racemic mixture, (S)-YK-4-279, or (R)-YK-4-279 at a dosage level of 25 or 50 mg/kg. […] However, given that approximately 50 percent of the racemic mixture is (S)-YK-4-279 and the clearance […] the dose, the IV clearance of (S)-YK-4-279 is considered to be similar whether a racemic mixture or only (S)-YK-4-279 is administered. Systemic exposure to (S)-YK-4-279 was evaluated using Cmax and AUC values. Cmax and AUC8 values were similar between males and females for a given dose group. With an expected enantiomer ratio of 1:1 in the racemic dose, Group 2 animals would have received a 2-fold higher dose of (S)-YK-4-279 than Group 1 animals. […] Absolute bioavailability of (S)-YK-4-279 following gavage administration, using cremophor/ethanol as an excipient, in SD rats was only 2–6% (Table 2).
Nine SD rats of each gender were assigned to nine dose groups. Groups 1 through 3 received a single IV injection of racemic mixture, (S)-YK-4-279, or (R)-YK-4-279 at a dose of 25 mg/kg. Groups 4 through 9 received a single gavage administration of racemic mixture, (S)-YK-4-279, or (R)-YK-4-279 at a dosage level of 25 or 50 mg/kg. Blood samples were collected from one animal per group per time point at target time points of pre-dose, 5, 15, 30 and 60 minutes, and 2, 4, 8 and 12 hours following dosing. Plasma was obtained from the samples and analyzed for (S) and (R)-YK-4-279 concentrations.
(§1) The plasma and tumor sample analysis was performed using calibration standards and Quality Control (QC) samples prepared in control rat or mouse plasma and tumor tissues. Plasma and tumor calibration standards were prepared from stock solutions of YK-4-279. The calibration standards, blanks, QC samples, and study samples were then processed by solid-liquid extraction (SLE) followed by analysis using liquid chromatography with mass spectrometry (LC-MS). The LC-MS systems used for the analysis of YK-4-279 was composed of Shimadzo prominence pump and auto-sampler (Kyoto, Japan), a Sciex API 5000 MS (Toronto, Ontario), with turbo ion spary in the positive ion mode. The samples for the analysis of total YK-4-279 were injected into a 50 × 2 mm Gemini- NX, 5 ¼m column (Phenomenex, Torrance, CA). The samples for the analysis of the specific enantiomers of YK-4-279 were injected into a 150 × 2 mm Lux Cellulose-2, 3 ¼m Phenomenex column. The transitions monitored were 366 amu to 135 amu for YK-4-279 and 369 amu to 138 amu for the YK-4-279-d3 internal standard. YK-4-279 concentrations were calculated using peak area response ratios and a regression equation constructed from the concentrations and peak area response ratios of the calibration standards. The lower limit of quantitation was 5.0 ng/mL in plasma and […] in tumor tissue. The concentration-time profiles were evaluated by compartmental modeling and non-compartmental analysis using WinNonlin (Pharsight Corporation, Mountain View, CA). The PK parameters obtained from the compartmental modeling were used in simulations to identify optimal dose level and dosing schedule for maintaining plasma concentration of (S)-YK-4-279 above 3 ¼M.

[2] = Plasma concentration after IP injection of various formulations in C57BL/6 mice; format: in vivo; conditions: C57BL/6 mouse plasma, 20 minutes after IP 200 mg/kg racemic mixture, 10% w/v sucrose, 1% v/v Tween 80, 5% v/v ethanol in DI water, mean ±SD, five mice
Description: The poor oral bioavailability determined from the rat study caused us to focus on IV delivery. Since mice often metabolize compounds differently from rats, we also evaluated the intraperitoneal (IP) PK profle and compared it to the IV profile. We determined pharmacokinetics in C57BL/6 mice given IV (Figure 2A) or IP (Figure 2B) administrations of 75 mg/kg YK-4-279, which was the maximal solubility of compound in 20% Cremophor EL. […] In addition, drug levels in tumor were measured using SCID/bg mice with orthotopic xenografts that were treated with daily IV injections of (S)-YK-4-279 for 6 days. […] In order to determine (S)-YK-4-279 levels in the tumors, the mice were euthanized 2 hours following the fnal IV bolus dose for harvest of both tumors and plasma. […] Since the IV treatment was ineffective at reducing tumor growth, despite measurable levels in the tumor tissue, models of IP administration were used to design follow-up effcacy studies.
as §1

[3] = system: A4573 xenografts; assay: IV efficacy experiment, A4573 xenografts, with plasma and tumor drug levels; format: in vivo, SCID/bg mice
Description: (§2) The poor oral bioavailability determined from the rat study caused us to focus on IV delivery. Since mice often metabolize compounds differently from rats, we also evaluated the intraperitoneal (IP) PK profle and compared it to the IV profile. We determined pharmacokinetics in C57BL/6 mice given IV (Figure 2A) or IP (Figure 2B) administrations of 75 mg/kg YK-4-279, which was the maximal solubility of compound in 20% Cremophor EL. […] In addition, drug levels in tumor were measured using SCID/bg mice with orthotopic xenografts that were treated with daily IV injections of (S)-YK-4-279 for 6 days. […]
Twenty Fox Chase SCID beige mice per sex were inoculated with 2 million of A4573 cells. Tumor volume was monitored every day by caliper. […]
(§3) The plasma and tumor sample analysis was performed using calibration standards and Quality Control (QC) samples prepared in control rat or mouse plasma and tumor tissues. […] The transitions monitored were 366 amu to 135 amu for YK-4-279 and 369 amu to 138 amu for the YK-4-279-d3 internal standard. YK-4-279 concentrations were calculated using peak area response ratios and a regression equation constructed from the concentrations and peak area response ratios of the calibration standards. The lower limit of quantitation was 5.0 ng/mL in plasma and 5.0 ¼g/g in tumor tissue. […]

[4] = Pharmacokinetics in C57BL/6 mice, IV or IP 75 mg/kg; format: in vivo; conditions: IV 75 mg/kg
Description: as §2
as §3, with “tissue. The concentration-time profiles were evaluated by compartmental modeling and non-compartmental analysis using WinNonlin (Pharsight Corporation, Mountain View, CA).” for “tissue.”

[5] = SD rats, female (n=9), single IV injection 25 mg/kg
[6] = SD rats, male (n=9), single IV injection 25 mg/kg
[7] = SD rats, single IV injection 25 mg/kg, average of males and females, analyte (S)-YK-4-279

Row | Structure (SMILES) | AUClast [1, 5] | AUC∞ [1, 5] | Clearance [1, 5] | Observed Cmax [1, 5] | Terminal Elimination Half-Life [1, 5] | AUClast [1, 6] | AUC∞ [1, 6] | Clearance [1, 6] | Observed Cmax [1, 6] | Terminal Elimination Half-Life [1, 6] | further results
1 | COc1ccc(C(=O)C[C@]2(O)C(=O)Nc3c(Cl)ccc(Cl)c32)cc1 [(R)-YK-4-279] | BLOQ | BLOQ | BLOQ | BLOQ | BLOQ | BLOQ | BLOQ | BLOQ | BLOQ1 | BLOQ | Clearance slower than the clearance of (S)-YK-4-279 ([1]; SD rats (Supplemental table 1, not available)): approximately 25%
2 | COc1ccc(C(=O)CC2(O)C(=O)Nc3c(Cl)ccc(Cl)c32)cc1 (stereo not drawn) [YK-4-279] | 25.6 hr*¼M | 25.9 hr*¼M | 44 mL/min/kg | 37.1 ¼M | 36.1 min | 26.5 hr*¼M | 26.7 hr*¼M | 42.67 mL/min/kg | 39.9 ¼M | 33.8 min | (S)-YK-4-279 Concentrations ([2]; 0.25% lecithin, 0% DMSO, 0% soybean oil): 10.5 ± 8.6 ¼M; (S)-YK-4-279 Concentrations ([2]; 1.2% lecithin, 0% DMSO, 10% soybean oil): 20.9 ± 22.8 ¼M; (S)-YK-4-279 Concentrations ([2]; 1.2% lecithin, 10% DMSO, 0% soybean oil): 35.8 ± 45.0 ¼M; (S)-YK-4-279 Concentrations ([2]; 1.2% lecithin, 10% DMSO, 10% soybean oil): 39.1 ± 54.6 ¼M; (S)-YK-4-279 Concentrations ([2]; 2.5% lecithin, 0% DMSO, 10% soybean oil): 19.8 ± 20.5 ¼M; (S)-YK-4-279 Concentrations ([2]; 2.5% lecithin, 10% DMSO, 0% soybean oil): 59.7 ± 58.6 ¼M; (S)-YK-4-279 Concentrations ([2]; 2.5% lecithin, 10% DMSO, 10% soybean oil): 21.3 ± 11.3 ¼M; Effect on xenograft tumor growth ([3]; A4573 xenografts in SCID/bg mice, 75 mg/kg IV QD): tumors did not regress nor reduce their growth rate; Plasma levels 2 hours following the final IV bolus dose ([3]; SCID/bg mice with A4573 xenografts, repeated IV injections): 1.5–18 ¼M; Average clearance [1, 7]: 43.33 mL/min/kg; Average elimination half-life [1, 7]: 35 min; Time that peak levels would exceed 3 ¼M [4]: ~ 1 hour
